Assay results as given in ChEMBL document CHEMBL1201862, “PubChem BioAssay data set” (2004).
Active and inactive are the calls of the source.

Legend:
[1] = target: T1, Hexokinase-1 (Homo sapiens, UniProt P19367); experiment: hexokinase 1 activators, dose response, selectivity assay for HKDC1 activator project, biochemical (AID 504762); assay type: functional
T1 sequence (P19367 whole entry): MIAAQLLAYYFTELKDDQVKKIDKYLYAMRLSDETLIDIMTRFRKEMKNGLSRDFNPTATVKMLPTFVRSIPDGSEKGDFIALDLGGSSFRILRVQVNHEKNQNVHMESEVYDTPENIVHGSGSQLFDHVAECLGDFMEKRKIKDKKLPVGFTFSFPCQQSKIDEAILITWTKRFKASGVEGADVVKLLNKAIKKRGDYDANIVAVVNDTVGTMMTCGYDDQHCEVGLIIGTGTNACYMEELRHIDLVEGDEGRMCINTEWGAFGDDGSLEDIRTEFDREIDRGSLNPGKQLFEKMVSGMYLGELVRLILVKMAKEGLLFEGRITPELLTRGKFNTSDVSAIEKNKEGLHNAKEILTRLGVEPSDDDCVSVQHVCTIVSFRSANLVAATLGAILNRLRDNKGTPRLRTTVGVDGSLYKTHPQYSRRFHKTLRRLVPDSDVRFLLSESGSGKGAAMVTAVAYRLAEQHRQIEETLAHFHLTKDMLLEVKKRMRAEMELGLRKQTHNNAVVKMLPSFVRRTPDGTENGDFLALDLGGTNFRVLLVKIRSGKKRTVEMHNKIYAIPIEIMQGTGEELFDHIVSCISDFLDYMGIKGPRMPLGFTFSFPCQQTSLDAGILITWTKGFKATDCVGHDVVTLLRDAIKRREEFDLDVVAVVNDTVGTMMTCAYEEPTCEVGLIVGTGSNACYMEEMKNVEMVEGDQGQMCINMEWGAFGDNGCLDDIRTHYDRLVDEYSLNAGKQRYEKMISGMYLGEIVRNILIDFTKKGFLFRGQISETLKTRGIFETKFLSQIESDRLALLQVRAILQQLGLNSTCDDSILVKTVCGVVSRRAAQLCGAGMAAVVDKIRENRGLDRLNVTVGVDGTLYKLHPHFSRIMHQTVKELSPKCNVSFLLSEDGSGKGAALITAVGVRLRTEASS

[2] = target: T2, Hexokinase HKDC1 (Homo sapiens, UniProt Q2TB90); experiment: HKDC1 hexokinase activators, dose response, biochemical, W721R variant (AID 504730); assay type: functional
T2 sequence (Q2TB90 whole entry): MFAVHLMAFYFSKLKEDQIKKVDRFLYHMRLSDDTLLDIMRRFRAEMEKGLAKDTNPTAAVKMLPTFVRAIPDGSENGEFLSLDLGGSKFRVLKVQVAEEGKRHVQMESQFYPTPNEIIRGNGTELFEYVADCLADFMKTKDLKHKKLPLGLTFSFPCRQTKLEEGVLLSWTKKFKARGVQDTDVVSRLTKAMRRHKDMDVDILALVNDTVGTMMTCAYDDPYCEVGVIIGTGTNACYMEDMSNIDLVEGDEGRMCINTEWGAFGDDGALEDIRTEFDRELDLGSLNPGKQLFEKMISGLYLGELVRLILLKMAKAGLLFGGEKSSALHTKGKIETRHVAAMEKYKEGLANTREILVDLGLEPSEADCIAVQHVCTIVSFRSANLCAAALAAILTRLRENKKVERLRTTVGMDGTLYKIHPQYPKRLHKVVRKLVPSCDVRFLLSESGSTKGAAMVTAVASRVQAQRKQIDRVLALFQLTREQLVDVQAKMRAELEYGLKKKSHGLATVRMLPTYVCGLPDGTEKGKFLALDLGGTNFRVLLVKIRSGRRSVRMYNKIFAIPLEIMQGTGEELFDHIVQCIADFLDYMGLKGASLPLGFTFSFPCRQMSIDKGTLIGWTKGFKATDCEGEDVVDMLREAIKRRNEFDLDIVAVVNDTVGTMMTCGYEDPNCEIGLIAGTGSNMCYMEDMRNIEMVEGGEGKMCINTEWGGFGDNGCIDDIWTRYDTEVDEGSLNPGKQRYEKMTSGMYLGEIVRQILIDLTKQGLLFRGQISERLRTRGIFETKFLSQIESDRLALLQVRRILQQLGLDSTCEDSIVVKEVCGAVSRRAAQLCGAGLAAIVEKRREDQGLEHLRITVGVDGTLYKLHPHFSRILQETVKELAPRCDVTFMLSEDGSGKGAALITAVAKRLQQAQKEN

[3] = target: Cytochrome P450 2D6 (Homo sapiens, UniProt P10635);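 also: CYP2D6 member of a cytochrome P450 panel assay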
Sequence of Cytochrome P450 2D6 (P10635 whole entry): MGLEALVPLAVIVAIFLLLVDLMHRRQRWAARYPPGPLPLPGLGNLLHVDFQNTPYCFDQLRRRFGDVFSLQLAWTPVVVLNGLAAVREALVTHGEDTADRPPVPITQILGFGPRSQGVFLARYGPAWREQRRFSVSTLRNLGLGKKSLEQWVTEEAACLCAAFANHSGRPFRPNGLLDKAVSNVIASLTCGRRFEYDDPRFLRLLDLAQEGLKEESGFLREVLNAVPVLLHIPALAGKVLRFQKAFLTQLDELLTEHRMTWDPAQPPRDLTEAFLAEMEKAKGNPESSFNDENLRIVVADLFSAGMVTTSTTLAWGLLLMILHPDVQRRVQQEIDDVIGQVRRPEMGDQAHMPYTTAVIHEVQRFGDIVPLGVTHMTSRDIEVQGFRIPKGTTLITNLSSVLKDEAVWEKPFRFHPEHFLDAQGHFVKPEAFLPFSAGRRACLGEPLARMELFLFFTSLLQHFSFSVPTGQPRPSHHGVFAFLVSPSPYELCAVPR

[4] = target: Cytochrome P450 2C9 (Homo sapiens, UniProt P11712)
Sequence of Cytochrome P450 2C9 (P11712 whole entry): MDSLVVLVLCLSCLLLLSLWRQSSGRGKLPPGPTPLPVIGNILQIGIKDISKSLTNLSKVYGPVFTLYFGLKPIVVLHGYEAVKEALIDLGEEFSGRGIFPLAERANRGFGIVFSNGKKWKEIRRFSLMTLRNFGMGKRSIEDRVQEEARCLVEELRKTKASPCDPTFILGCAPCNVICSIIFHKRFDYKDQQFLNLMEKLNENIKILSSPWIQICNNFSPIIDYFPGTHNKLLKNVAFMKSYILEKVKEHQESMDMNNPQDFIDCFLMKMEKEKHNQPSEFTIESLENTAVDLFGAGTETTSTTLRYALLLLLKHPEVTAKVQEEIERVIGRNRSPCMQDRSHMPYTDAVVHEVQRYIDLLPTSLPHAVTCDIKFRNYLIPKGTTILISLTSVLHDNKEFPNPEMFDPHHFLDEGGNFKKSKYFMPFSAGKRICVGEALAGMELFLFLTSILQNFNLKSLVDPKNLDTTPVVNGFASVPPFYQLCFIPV

[5] = target: Cytochrome P450 3A4 (Homo sapiens, UniProt P08684);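 also: CYP3A4 tested as one member of a cytochrome P450 panel screen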
Sequence of Cytochrome P450 3A4 (P08684 whole entry): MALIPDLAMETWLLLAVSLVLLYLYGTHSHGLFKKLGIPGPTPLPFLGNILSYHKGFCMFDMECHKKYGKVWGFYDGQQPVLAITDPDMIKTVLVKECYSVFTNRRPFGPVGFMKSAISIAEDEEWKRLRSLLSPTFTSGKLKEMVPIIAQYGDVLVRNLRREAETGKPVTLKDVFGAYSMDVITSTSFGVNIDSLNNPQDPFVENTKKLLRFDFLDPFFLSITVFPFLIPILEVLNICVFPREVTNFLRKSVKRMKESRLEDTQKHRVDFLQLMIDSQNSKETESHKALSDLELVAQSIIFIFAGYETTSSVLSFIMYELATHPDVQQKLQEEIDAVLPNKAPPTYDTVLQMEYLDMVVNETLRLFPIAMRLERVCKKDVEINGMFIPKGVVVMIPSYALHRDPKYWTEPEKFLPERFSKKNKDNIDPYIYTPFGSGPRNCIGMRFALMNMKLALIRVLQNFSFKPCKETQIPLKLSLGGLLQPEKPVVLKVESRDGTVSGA

[6] = target: T3, Mannose-6-phosphate isomerase (Homo sapiens, UniProt P34949); experiment: PMI enzyme inhibitors, confirmation, biochemical, fluorescence intensity (AID 1535)
T3 sequence (P34949 whole entry): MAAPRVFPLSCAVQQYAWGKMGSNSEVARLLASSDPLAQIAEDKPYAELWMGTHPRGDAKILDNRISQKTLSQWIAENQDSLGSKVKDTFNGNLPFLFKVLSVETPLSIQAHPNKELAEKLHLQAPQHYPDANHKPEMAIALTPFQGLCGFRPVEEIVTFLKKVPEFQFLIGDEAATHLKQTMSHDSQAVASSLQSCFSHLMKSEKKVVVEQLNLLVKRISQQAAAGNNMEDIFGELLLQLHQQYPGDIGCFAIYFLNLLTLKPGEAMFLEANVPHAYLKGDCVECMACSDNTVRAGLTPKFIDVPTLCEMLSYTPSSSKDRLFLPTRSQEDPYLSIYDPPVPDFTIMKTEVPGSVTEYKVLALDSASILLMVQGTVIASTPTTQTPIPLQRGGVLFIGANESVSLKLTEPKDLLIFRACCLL

[7] = target: T4, Phosphomannomutase 2 (Homo sapiens, UniProt O15305); experiment: Counter screen SAR assay for PMM2 inhibitors via a fluorescence intensity assay. [Related pubchem assays (depositor defined):AID1545, AID1574]
T4 sequence (O15305 whole entry): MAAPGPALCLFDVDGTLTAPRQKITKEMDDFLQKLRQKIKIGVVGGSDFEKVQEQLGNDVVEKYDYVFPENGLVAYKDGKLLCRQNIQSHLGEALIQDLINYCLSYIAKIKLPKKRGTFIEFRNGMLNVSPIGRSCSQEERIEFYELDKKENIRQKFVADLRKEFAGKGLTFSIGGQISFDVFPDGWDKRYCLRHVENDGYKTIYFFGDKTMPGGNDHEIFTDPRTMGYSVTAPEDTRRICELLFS

[8] = target: T5, Cytochrome P450 1A2 (Homo sapiens, UniProt P05177);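 also: PubChem cytochrome P450 panel assay, CYP1A2 panel member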
T5 sequence (P05177 whole entry): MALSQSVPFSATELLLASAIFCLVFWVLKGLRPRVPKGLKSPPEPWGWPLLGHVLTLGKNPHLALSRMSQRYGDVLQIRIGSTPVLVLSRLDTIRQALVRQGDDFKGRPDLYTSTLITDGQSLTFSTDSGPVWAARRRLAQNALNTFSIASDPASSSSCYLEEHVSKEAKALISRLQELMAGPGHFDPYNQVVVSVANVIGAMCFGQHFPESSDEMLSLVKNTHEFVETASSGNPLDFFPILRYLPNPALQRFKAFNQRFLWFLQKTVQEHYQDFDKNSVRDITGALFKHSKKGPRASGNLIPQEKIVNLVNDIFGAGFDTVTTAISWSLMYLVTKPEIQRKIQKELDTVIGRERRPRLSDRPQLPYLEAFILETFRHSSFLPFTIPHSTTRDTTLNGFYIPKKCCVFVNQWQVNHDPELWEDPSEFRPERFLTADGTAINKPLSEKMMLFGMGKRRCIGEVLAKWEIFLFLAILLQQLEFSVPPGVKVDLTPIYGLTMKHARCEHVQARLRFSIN

[9] = target: Cytochrome P450 2C19 (Homo sapiens, UniProt P33261); experiment: Cytochrome panel assay with activity outcomes. Panel member name: p450-cyp2c19 Compounds with AC50 equal or less than 10 uM are considered active; assay type: functional; settings: read-out: AC50
Sequence of Cytochrome P450 2C19 (P33261 whole entry): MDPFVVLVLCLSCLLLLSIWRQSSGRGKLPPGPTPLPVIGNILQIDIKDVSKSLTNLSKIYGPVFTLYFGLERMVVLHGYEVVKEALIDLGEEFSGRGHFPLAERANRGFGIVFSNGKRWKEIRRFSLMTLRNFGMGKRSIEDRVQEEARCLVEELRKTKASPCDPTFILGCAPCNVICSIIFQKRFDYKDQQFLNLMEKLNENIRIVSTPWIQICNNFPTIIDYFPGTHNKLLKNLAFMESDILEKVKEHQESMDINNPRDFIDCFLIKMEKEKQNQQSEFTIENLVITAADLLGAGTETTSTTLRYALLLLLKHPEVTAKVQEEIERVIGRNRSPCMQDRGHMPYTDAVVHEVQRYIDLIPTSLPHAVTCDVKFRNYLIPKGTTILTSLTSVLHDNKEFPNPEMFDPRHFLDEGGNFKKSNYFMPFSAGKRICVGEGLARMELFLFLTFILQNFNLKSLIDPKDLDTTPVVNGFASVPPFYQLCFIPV

[10] = system: Vero; experiment: cells; assay type: functional; settings: Chlorocebus sabaeus
[11] = target: T6, Corticotropin-releasing factor receptor 2/Corticotropin-releasing factor-binding protein (Homo sapiens, UniProt P24387+Q13324); experiment: activators of CRF receptor 2 with binding protein – uHTS hits, confirmation (AID 602473); assay type: functional; settings: read-out: EC50_Mean
T6 sequence (Q13324 whole entry): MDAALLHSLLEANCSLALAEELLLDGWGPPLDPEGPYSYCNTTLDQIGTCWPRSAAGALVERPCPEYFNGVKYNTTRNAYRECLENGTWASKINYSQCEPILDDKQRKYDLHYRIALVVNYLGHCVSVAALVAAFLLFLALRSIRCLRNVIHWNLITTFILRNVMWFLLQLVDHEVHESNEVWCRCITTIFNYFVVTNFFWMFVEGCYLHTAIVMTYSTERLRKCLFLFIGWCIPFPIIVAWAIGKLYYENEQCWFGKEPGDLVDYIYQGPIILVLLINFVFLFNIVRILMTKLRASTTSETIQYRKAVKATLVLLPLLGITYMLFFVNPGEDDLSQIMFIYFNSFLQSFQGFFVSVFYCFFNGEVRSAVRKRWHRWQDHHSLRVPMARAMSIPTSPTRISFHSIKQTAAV
T6 sequence (P24387 whole entry): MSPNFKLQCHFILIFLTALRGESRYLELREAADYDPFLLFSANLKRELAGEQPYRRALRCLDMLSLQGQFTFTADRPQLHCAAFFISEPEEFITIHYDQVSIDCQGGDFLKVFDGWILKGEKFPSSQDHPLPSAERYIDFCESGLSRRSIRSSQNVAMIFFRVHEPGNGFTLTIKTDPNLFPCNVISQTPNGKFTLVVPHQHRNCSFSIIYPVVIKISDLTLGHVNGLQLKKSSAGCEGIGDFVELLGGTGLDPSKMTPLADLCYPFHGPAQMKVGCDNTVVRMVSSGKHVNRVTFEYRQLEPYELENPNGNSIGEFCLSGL

[12] = target: Troponin, cardiac muscle (Homo sapiens, UniProt P19429+P45379+P63316); experiment: Fluorescence-based biochemical high throughput dose response assay for activators of the calcium sensitivity of cardiac Regulated Thin Filaments (RTF). [Related pubchem assays (depositor defined):AID493008, AID493018, AID504382, AID504383]; assay type: protein-complex assay
[13] = target: T7, Endoribonuclease toxin MazF (Escherichia coli K-12, UniProt P0AE70); experiment: MazF toxin RNase activators, dose response, biochemical, fluorescence, single-stranded RNA substrate, uHTS hits (AID 588481); assay type: functional
T7 sequence (P0AE70 whole entry): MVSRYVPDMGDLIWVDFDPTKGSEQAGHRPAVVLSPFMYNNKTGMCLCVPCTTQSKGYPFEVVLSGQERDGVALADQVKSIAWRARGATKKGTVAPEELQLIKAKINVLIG

[14] = target: T7, Endoribonuclease toxin MazF; experiment: fluorescent RNA oligo signal without MazF, dose response, counter-screen for MazEF activator project, biochemical, fluorescence, single-stranded RNase substrate (AID 588502); assay type: functional

CCOC(=O)c1c(C)[nH]c(C2=NN=C(Nc3ccccc3)SC2)c1C
EC50 [1]: 18.2 µM (active)
EC50 [2]: 24.3 µM (inactive)

COc1ccc(OC)c(S(=O)(=O)N2CCC(C(=O)NCCc3ccccc3)CC2)c1
AC50 [3]: 2.24 µM (inconclusive)
AC50 [4]: inconclusive
AC50 [5]: 39.8 µM (inconclusive)

Cc1cc2n(n1)SC(Nc1cccc3ccccc13)N2 (centres undefined)
IC50 [6]: > 50 µM (inactive)
IC50 [7]: > 100 µM (inactive)

Cc1cc2cc(CNC(=O)CC(C)C)ccc2n1C
AC50 [4]: inconclusive
AC50 [5]: 15.8 µM (inconclusive)

COC(=O)c1ccccc1NC(=O)C(CCS(C)(=O)=O)NC(C)=O (centres undefined)
AC50 [4]: inconclusive
AC50 [8]: 20 µM (inconclusive)
AC50 [9]: 39.8 µM (inconclusive)

Cn1c(SSc2ccc(-c3cccnc3)n2C)ccc1-c1cccnc1
EC50 [1]: 14.2 µM (active)
CC50 [10]: 16.8 µM (active)
EC50 [2]: 14.8 µM (active)

COc1ccc(OC)c(/C=C2\N=C(c3ccccc3)OC2=O)c1
EC50 [11]: 2.29 µM (active)
EC50 [12]: 2.58 µM (active)
EC50 [13]: > 99 µM (inactive)
EC50 [14]: 39.1 µM (inactive)
